Measurements: the supplement of paper PMC6045584
± gives the standard deviation of the averaged measurements.

How the values were obtained:
[1] = compound: COc1cc2ncnc(Nc3ccc(F)c(Cl)c3)c2cc1NC(=O)/C=C/CN1CCCCC1; assay: surviving fraction relative to DMSO-only wells; higher = less growth inhibition; conditions: exposure time: 5 days
In short: (§1)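 Tumour cell lines were grown to log phase and seeded at 250–500 cells per well in 384-well plates. They were exposed continuously to inhibitors at 0.5, 1, 5, 10, 50, 100, 500 and 1000 nM for five days, beginning 24 hours after seeding. Surviving fraction is CellTiter-Glo luminescence normalised to the median of DMSO-only wells.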

DASATINIB = compound: Cc1nc(Nc2ncc(C(=O)Nc3c(C)cccc3Cl)s2)cc(N2CCN(CCO)CC2)n1 [DASATINIB]; assay: as above; conditions: exposure time: 5 days
In short: as §1

Row | Test System | surviving fraction ([1]; 0.5 nM) | surviving fraction ([1]; 1 nM) | surviving fraction ([1]; 5 nM) | surviving fraction ([1]; 10 nM) | surviving fraction ([1]; 50 nM) | surviving fraction ([1]; 100 nM) | surviving fraction ([1]; 500 nM) | surviving fraction ([1]; 1000 nM) | surviving fraction (DASATINIB; 0.5 nM) | surviving fraction (DASATINIB; 1 nM) | surviving fraction (DASATINIB; 5 nM) | surviving fraction (DASATINIB; 10 nM) | surviving fraction (DASATINIB; 50 nM) | surviving fraction (DASATINIB; 100 nM) | surviving fraction (DASATINIB; 500 nM) | surviving fraction (DASATINIB; 1000 nM)
1 | MDAMB436 BREAST | 0.922 ± 0.08 | 0.975 ± 0.077 | 0.895 ± 0.021 | 0.971 ± 0.17 | 0.996 ± 0.053 | 0.89 ± 0.11 | 0.771 ± 0.065 | 0.706 ± 0.085 | 0.793 ± 0.052 | 0.861 ± 0.061 | 0.811 ± 0.091 | 0.826 ± 0.094 | 0.824 ± 0.082 | 0.775 ± 0.057 | 0.783 ± 0.061 | 0.757 ± 0.034
2 | MDAMB453 BREAST | 1.05 ± 0.021 | 1.04 ± 0.08 | 1.03 ± 0.1 | 1.09 ± 0.093 | 1.07 ± 0.044 | 0.887 ± 0.048 | 0.705 ± 0.033 | 0.509 ± 0.069 | 1.03 ± 0.046 | 0.995 ± 0.047 | 1.06 ± 0.018 | 1 ± 0.047 | 1.03 ± 0.025 | 1.02 ± 0.052 | 1 ± 0.036 | 1.02 ± 0.091
3 | MDAMB468 BREAST | 0.997 ± 0.094 | 1.04 ± 0.033 | 0.8783 ± 0.0035 | 0.854 ± 0.063 | 0.626 ± 0.013 | 0.676 ± 0.035 | 0.438 ± 0.016 | 0.286 ± 0.014 | 0.872 ± 0.069 | 0.881 ± 0.038 | 0.909 ± 0.028 | 0.836 ± 0.11 | 0.858 ± 0.099 | 0.718 ± 0.065 | 0.488 ± 0.055 | 0.481 ± 0.055
4 | MFM223 BREAST | 1.094 ± 0.01 | 1.09 ± 0.042 | 1.14 ± 0.073 | 1.15 ± 0.072 | 1.2 ± 0.078 | 1.19 ± 0.06 | 0.914 ± 0.06 | 0.587 ± 0.055 | 0.778 ± 0.17 | 0.785 ± 0.2 | 0.767 ± 0.18 | 0.684 ± 0.05 | 0.834 ± 0.059 | 0.86 ± 0.1 | 0.788 ± 0.091 | 0.68 ± 0.06
5 | MG63 BONE | 1.04 ± 0.072 | 1 ± 0.049 | 1.05 ± 0.033 | 1.06 ± 0.062 | 1.04 ± 0.056 | 1.03 ± 0.08 | 0.911 ± 0.039 | 0.89 ± 0.073 | 0.899 ± 0.035 | 0.901 ± 0.013 | 0.785 ± 0.015 | 0.691 ± 0.0046 | 0.469 ± 0.0076 | 0.357 ± 0.012 | 0.204 ± 0.0021 | 0.194 ± 0.0071
6 | MHM BONE | 1.01 ± 0.044 | 0.998 ± 0.021 | 1.02 ± 0.025 | 0.998 ± 0.032 | 1.01 ± 0.011 | 1.03 ± 0.024 | 0.974 ± 0.011 | 0.926 ± 0.016 | 0.966 ± 0.032 | 0.933 ± 0.058 | 0.846 ± 0.065 | 0.815 ± 0.049 | 0.686 ± 0.011 | 0.635 ± 0.0097 | 0.525 ± 0.0055 | 0.488 ± 0.018
7 | NCIH441 LUNG | 1.08 ± 0.13 | 1.04 ± 0.041 | 1.05 ± 0.073 | 1.06 ± 0.04 | 0.981 ± 0.038 | 0.859 ± 0.12 | 0.689 ± 0.051 | 0.5 ± 0.013 | 0.994 ± 0.053 | 1.01 ± 0.052 | 0.878 ± 0.085 | 0.921 ± 0.046 | 0.846 ± 0.058 | 0.557 ± 0.056 | 0.462 ± 0.073 | 0.341 ± 0.046
8 | NOS1 BONE | 1.1 ± 0.045 | 1.15 ± 0.077 | 1.14 ± 0.051 | 1.17 ± 0.094 | 1.12 ± 0.16 | 0.968 ± 0.033 | 0.26 ± 0.011 | 0.135 ± 0.012 | 0.817 ± 0.083 | 0.726 ± 0.086 | 0.587 ± 0.026 | 0.464 ± 0.021 | 0.296 ± 0.004 | 0.256 ± 0.028 | 0.2 ± 0.026 | 0.193 ± 0.014
9 | NY BONE | 0.99 ± 0.014 | 0.975 ± 0.032 | 1.05 ± 0.032 | 1.01 ± 0.071 | 1.04 ± 0.044 | 1 ± 0.051 | 0.756 ± 0.011 | 0.514 ± 0.01 | 0.9257 ± 0.0085 | 0.881 ± 0.011 | 0.828 ± 0.015 | 0.753 ± 0.018 | 0.471 ± 0.018 | 0.366 ± 0.031 | 0.288 ± 0.012 | 0.263 ± 0.027
10 | OS25HAL BONE | 0.995 ± 0.013 | 0.972 ± 0.011 | 1.02 ± 0.032 | 0.981 ± 0.0017 | 1.05 ± 0.044 | 1.07 ± 0.015 | 1.012 ± 0.0087 | 0.964 ± 0.011 | 0.88 ± 0.03 | 0.849 ± 0.013 | 0.849 ± 0.035 | 0.747 ± 0.035 | 0.686 ± 0.05 | 0.599 ± 0.074 | 0.45 ± 0.073 | 0.363 ± 0.045
11 | OSHN BONE | 1.07 ± 0.034 | 1.06 ± 0.044 | 1.08 ± 0.033 | 1.05 ± 0.035 | 1.1 ± 0.037 | 1.1 ± 0.027 | 1.06 ± 0.047 | 1.029 ± 0.0075 | 0.889 ± 0.016 | 0.9163 ± 0.0047 | 0.865 ± 0.035 | 0.83 ± 0.014 | 0.915 ± 0.012 | 0.891 ± 0.023 | 0.662 ± 0.13 | 0.46 ± 0.17
12 | PCI30 HEADNECK | 0.985 ± 0.029 | 1.01 ± 0.087 | 0.649 ± 0.07 | 0.551 ± 0.078 | 0.393 ± 0.01 | 0.392 ± 0.013 | 0.194 ± 0.035 | 0.0737 ± 0.0085 | 0.916 ± 0.015 | 0.888 ± 0.076 | 0.966 ± 0.05 | 0.98 ± 0.028 | 0.747 ± 0.017 | 0.665 ± 0.036 | 0.528 ± 0.019 | 0.421 ± 0.05
13 | RDES SOFT TISSUE | 1.27 ± 0.17 | 1.28 ± 0.086 | 1.28 ± 0.059 | 1.33 ± 0.18 | 1.28 ± 0.2 | 1.23 ± 0.13 | 1.23 ± 0.15 | 1.22 ± 0.1 | 0.849 ± 0.23 | 0.762 ± 0.2 | 0.775 ± 0.067 | 0.767 ± 0.14 | 0.981 ± 0.09 | 0.934 ± 0.057 | 0.975 ± 0.059 | 0.9887 ± 0.0031
14 | S68 BREAST | 0.768 ± 0.15 | 1.01 ± 0.15 | 1.03 ± 0.27 | 0.764 ± 0.12 | 0.701 ± 0.085 | 0.667 ± 0.14 | 0.603 ± 0.033 | 0.256 ± 0.024 | 0.625 ± 0.11 | 0.51 ± 0.096 | 0.561 ± 0.11 | 0.419 ± 0.12 | 0.409 ± 0.029 | 0.418 ± 0.041 | 0.277 ± 0.053 | 0.298 ± 0.079
15 | SAOS2 BONE | 1.17 ± 0.02 | 1.14 ± 0.017 | 1.14 ± 0.038 | 1.13 ± 0.07 | 1.1 ± 0.062 | 1.13 ± 0.064 | 0.762 ± 0.044 | 0.513 ± 0.028 | 0.842 ± 0.055 | 0.788 ± 0.024 | 0.62 ± 0.017 | 0.511 ± 0.043 | 0.475 ± 0.047 | 0.384 ± 0.023 | 0.274 ± 0.032 | 0.256 ± 0.015
16 | SCC003 HEADNECK | 1.01 ± 0.031 | 0.95 ± 0.19 | 0.845 ± 0.11 | 0.861 ± 0.082 | 0.554 ± 0.072 | 0.535 ± 0.079 | 0.405 ± 0.053 | 0.356 ± 0.031 | 0.877 ± 0.036 | 0.843 ± 0.068 | 0.899 ± 0.13 | 0.813 ± 0.076 | 0.827 ± 0.025 | 0.654 ± 0.046 | 0.263 ± 0.014 | 0.149 ± 0.023
17 | SCC36 HEADNECK | 0.84 ± 0.054 | 0.889 ± 0.024 | 0.656 ± 0.059 | 0.618 ± 0.0085 | 0.432 ± 0.014 | 0.424 ± 0.057 | 0.338 ± 0.022 | 0.235 ± 0.013 | 0.788 ± 0.13 | 0.676 ± 0.033 | 0.705 ± 0.078 | 0.678 ± 0.1 | 0.385 ± 0.078 | 0.19 ± 0.032 | 0.12 ± 0.013 | 0.112 ± 0.011
